For seven compounds, Emax and EC50 results are on record in ChEMBL document CHEMBL6182891, “Discovery of novel 1,2,3-Triazole hybrids derivatives as vasorelaxant agents: Molecular structure, Hirshfeld surface, in-vivo and in-silico investigation by molecular docking simulation” (Eur J Med Chem, 2025).

The test system of experiment [1] is Aorta. As to the kind of experiment: Vasorelaxant activity in endothelium-intact thoracic aortic rings of albino adult male Wistar rat assessed as reduction in epinephrine-induced contracture at 0.05 to 0.2 mg/ml relative to control. The following applies: dose 0.05-0.2 mg/ml. In kind it is functional.
The test system of experiment [2] is Aorta. Kind of experiment: Vasorelaxant activity in endothelium-intact thoracic aortic rings of albino adult male Wistar rat assessed as reduction in epinephrine-induced contracture. The format is functional, tissue-based.

On to `O=C(Cn1cc(COC(Cn2cnc3ccccc3c2=O)c2ccccc2)nn1)Nc1ccccc1` (centres undefined), for which the Emax (usually the size of the effect at its maximum, as opposed to the concentration needed) in experiment [1] turned out to be 35%. Also, the EC50 (commonly the concentration giving half of the maximal effect) in experiment [2] came out at 568 µM.

As for `Cc1ccccc1NC(=O)Cn1cc(COC(Cn2cnc3ccccc3c2=O)c2ccccc2)nn1` (centres undefined), the Emax in experiment [1] is 93.5%. For the same compound, the EC50 in experiment [2] stood at 246 µM.

For the compound `O=C(Cn1cc(COC(Cn2cnc3ccccc3c2=O)c2ccccc2)nn1)Nc1ccc(F)cc1` (centres undefined), the Emax in experiment [1] amounted to 48.2%. For the same compound, in experiment [2], the EC50 was determined as 345 µM.

`O=C(Cn1cc(COC(Cn2cnc3ccccc3c2=O)c2ccccc2)nn1)Nc1ccc(Cl)cc1` (centres undefined): in experiment [1], the Emax turned out to be 95.1%. Also, the EC50 in experiment [2] was found to be 198 µM.

Consider `COc1ccc(NC(=O)Cn2cc(COC(Cn3cnc4ccccc4c3=O)c3ccccc3)nn2)cc1` (centres undefined), for which the Emax in experiment [1] amounted to 50.9%. In experiment [2], the EC50 was found to be 387 µM.

Regarding `Cc1ccc(NC(=O)Cn2cc(COC(Cn3cnc4ccccc4c3=O)c3ccccc3)nn2)cc1` (centres undefined), the Emax in experiment [1] stood at 16.4%. In addition, the EC50 in experiment [2] turned out to be 1040 µM.

Turning to `COc1ccc(CCN(C)CCCC(C#N)(c2ccc(OC)c(OC)c2)C(C)C)cc1OC` (centres undefined) [VERAPAMIL], in experiment [1], the Emax was 61.7%. Moreover, the EC50 in experiment [2] came out at 39 µM.
